Data as given in paper PMC7083565, “In vitro metabolism, reaction phenotyping, enzyme kinetics, CYP inhibition and induction potential of ataluren” (Pharmacology Research & Perspectives, 2020).

Key:
CYP2A6 = assay: CYP induction in primary human hepatocytes: CYP2A6; type: in vitro ADME; conditions: Coumarin 7-hydroxylase, 48 hours, n=3
Experimental: Human hepatocytes isolated from three Caucasian males were transferred to 48‐well collagen‐coated plates at 0.14 × 10^6 cells/well in planting media for attachment. After attachment, planting media was replaced with sandwich media and the cells were incubated until clusters were established. […] The incubation solutions were aspirated and replaced with freshly prepared incubation solutions containing ataluren for an additional 24 hours. […] The incubation solutions were then aspirated and 150 µL of K‐H buffer containing CYP substrates were added. The hepatocytes were incubated for 30 minutes for CYP2C8 (10 µmol/L amodiaquine), 1 hour for CYP3A4 (125 µmol/L testosterone), and 4 hours for CYPs 1A2 (100 µmol/L phenacetin), 2A6 (100 µmol/L coumarin), 2B6 (150 µmol/L bupropion), 2C9 (50 µmol/L tolbutamide), 2C19 (100 µmol/L S‐mephenytoin), and 2E1 (300 µmol/L chlorzoxazone) activity assays. The reactions were stopped by the addition of 0.15 mL of ice‐cold methanol except that coumarin‐treated cells were incubated with β‐glucuronidase and aryl sulfatase for additional 1 hour to free 7‐hydroxycoumarin before the addition of 0.2 mL of ice‐cold methanol. Metabolite formation in incubations with test compounds and control inhibitors was assessed with validated LC‐MS/MS methods for each of the reaction products as described in Table S2. Enzymatic activity for each CYP was calculated using the absolute amount of metabolite formed (pmol) divided by hepatocytes in the incubation (million cells) and the incubation time (minute). The relative fold induction in enzymatic activity was calculated by comparing the rate of metabolite formation for treatment groups to that of the solvent control group (reported as vehicle control%) or positive control group (reported as positive control%).

CYP2C9 = biological target: T1, CYP2C9 (Homo sapiens, UniProt P11712); assay: CYP inhibition in pooled human liver microsomes: CYP2C9; type: in vitro ADME
T1 construct: tissue XenoTech LLC, Celsis-In Vitro Technologies, or Tissue Transformation Technologies; host or cells: pooled human liver microsomes
Experimental: The final concentration of each probe substrate was near the experimentally determined Km value for the indicated enzyme. Ataluren or prototypical CYP inhibitors (positive controls) was incubated (n = 3) with probe substrates and HLM in 100 mmol/L phosphate buffer (pH 7.4) in a total volume of approximately 0.25 mL, and the reactions were initiated by the addition of 1 mmol/L NADPH at 37°C. The reactions were carried out using previously established conditions to ensure linearity with respect to protein concentration and incubation time (Table S1). Incubations were stopped with the addition of ice‐cold acetonitrile. Metabolite formation in incubations with test compound and control inhibitors was assessed with LC‐MS/MS methods for each of the reaction products as described in Table S2. […] After 7 minutes incubation at 37°C, the reaction was stopped by the addition of ice‐cold acetonitrile, followed by membrane plate filtration. The filtrates were used for LC‐MS/MS analysis. Enzyme activity remaining at each nonzero ataluren concentration after incubation was normalized against control sample (zero ataluren concentration, enzyme activity = 100%), and the % remaining enzyme activity values were used for IC50 calculation. IC50 values were determined by nonlinear regression with GraphPad Prism 5 using the following four‐parameter sigmoidal‐logistic IC50 equation: Fit=background+range-background/[1+I/IC50^slope]
Where, I is the inhibitor concentration, and background was set to 0 and range to 100, as percent of control values are utilized. K i was determined by nonlinear regression with GraphPad Prism 5 using best fit model.

[1] = Glucuronidation in pooled human kidney microsomes; type: in vitro ADME; conditions: kidney microsomes 1 mg protein/mL, 10 μmol/L, 60 minutes, n = 1
Experimental: Ataluren at 10 μmol/L, was incubated (n = 1) with pooled human intestinal, lung, and kidney microsomes (1 mg protein/mL, preactivated with alamethicin) to evaluate if ataluren‐O‐1β‐acyl glucuronide will be formed in these extrahepatic tissues. Incubation mixtures and procedures were essentially the same as the above. The supernatant fractions were analyzed by LC‐MS/MS to quantify the formation of ataluren‐O‐1β‐acyl glucuronide and the loss of ataluren. Detailed LC‐MS/MS conditions are summarized in LC‐MS/MS Analysis section. […] The ataluren acyl glucuronide formation rate after 60 minutes incubation was calculated using the amount of metabolite formed (pmol) divided by the protein amount in the incubation sample ([…]) and the incubation time (60 minutes).
Quantification of ataluren loss and ataluren‐O‐1β‐acyl glucuronide formation was carried out with an LC‐MS/MS system, which consisted of two Shimadzu LC‐10ADvp pumps, a SPD10‐AVP UV/Vis detector, a Shimadzu SILHTA autosampler, a Shimadzu DGU‐14A degasser, and a Sciex API 4000 QTRAP mass spectrometer equipped with a Turbo Ionspray ionization source that operated in positive ionization mode. […] Ion transitions monitored were at m/z 285 → m/z 123 for ataluren, m/z 461 → m/z 285 for ataluren acyl glucuronide, and m/z 289 → m/z 127 for ataluren‐D4 (internal standard), respectively.

[2] = Steady-state plasma Cmax in DMD patients; type: in vivo, human
[3] = Plasma protein binding (ultrafiltration), mouse; type: in vitro ADME; conditions: male, C57/BL10, 50 to 50 000 ng/mL, mean ± SD, n = 3, read-out: percentage protein binding (converted)
Experimental: [^14C]‐Ataluren, at 50, 500, 5000, and 50 000 ng/mL or 0.175, 1.75, 17.5, and 175 µM, in male mouse, rat, dog, monkey, and human plasma, was incubated (n = 3) at 37°C for approximately 15 minutes, transferred into Centrifree® Micropartition Units (30 000 Da molecular weight cutoff, 1 mL capacity; Amicon Inc), and centrifuged at 37°C and 2000 g for approximately 10 minutes so that the amount of the sample filtered was approximately ≤ 20% of the total volume. After centrifugation, the entire ultrafiltrate was weighed and analyzed for radioactivity using liquid scintillation counting. The percent bound = (1‐Cu/Cm)×100, where Cu is the concentration of radioactivity in the ultrafiltrate and Cm is the concentration of radioactivity in the plasma before centrifugation.

T1 sequence (P11712 whole entry): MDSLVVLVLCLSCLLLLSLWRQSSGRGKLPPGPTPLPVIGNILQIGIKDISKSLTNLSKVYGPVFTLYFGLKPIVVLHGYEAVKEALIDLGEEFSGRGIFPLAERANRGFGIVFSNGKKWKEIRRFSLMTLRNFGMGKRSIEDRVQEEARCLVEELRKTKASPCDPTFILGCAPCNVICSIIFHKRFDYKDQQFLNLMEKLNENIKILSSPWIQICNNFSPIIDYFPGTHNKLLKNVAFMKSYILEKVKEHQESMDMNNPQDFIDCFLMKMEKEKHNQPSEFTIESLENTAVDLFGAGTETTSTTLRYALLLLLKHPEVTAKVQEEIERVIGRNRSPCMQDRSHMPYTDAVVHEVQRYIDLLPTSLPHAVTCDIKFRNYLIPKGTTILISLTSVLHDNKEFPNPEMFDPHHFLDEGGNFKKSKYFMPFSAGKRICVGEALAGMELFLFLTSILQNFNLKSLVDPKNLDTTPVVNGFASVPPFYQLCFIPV

## O=C(O)c1cccc(-c2noc(-c3ccccc3F)n2)c1 [ataluren, Ataluren]
CYP2A6; ataluren 4 µM
  Vehicle control %, Mean: 100%
CYP2A6; ataluren 40 µM
  Vehicle control %, Mean: 111%
CYP2A6; ataluren 400 µM
  Vehicle control %, Mean: 118%
CYP2C9; CYP2C9, competitive, mean ± SE, n = 3
  Ki: 75.4 ± 4.42 µM
CYP2C9; CYP2C9, tolbutamide methyl hydroxylase
  mechanism of inhibition: competitive inhibitor
CYP2C9; Diclofenac 4′-hydroxylase, pooled HLM, n=3, (95% confidence interval)
  IC50: 135 µM
CYP2C9; human, pooled human liver microsomes, pH 7.4, CYP2C9, HLM
  IC50: 134 µM
[1]
  ataluren loss: 94.3%
[2]; conservative, assuming free fraction value of 1%
  free Cmax at the steady state: ~800 nM
[2]; using free fraction value of 0.4% as measured
  free Cmax at the steady state: around 0.32 µmol/L
[3]
  fraction unbound at 15 min: 0.016
